In patent publication US20040097576A1, “Use of tryptophan derivatives for the specific cytostatic treatment of serotonin-producing tumors” (priority 2001, published 2004):

Assays:
[1] = tested on: serotonin-producing cells NG108; test: Toxicity of 7-HTP on serotonin-producing cells NG108 (FIG. 2); format: cell-based
Description: (§1) FIG. 2. […] In contrast, the growth of COS7-cells that produce no serotonin is not affected by 7-HTP.

COS7-cells = test: Growth of COS7-cells that produce no serotonin (FIG. 2); format: cell-based
Description: as §1

[2] = tested on: serotonin-producing mastocytoma cells P815; test: Toxicity of 7-HTP on mastocytoma cells P815 (FIG. 3); format: cell-based
[3] = tested on: serotonin-producing human carcinoid cells BON; test: Toxicity of 7-HTP on human carcinoid cells BON (FIG. 4); format: cell-based
[4] = tested on: tryptophan-hydroxylase (TPH) and aromatic-amino acid-decarboxylase (AAAD); test: Intracellular enzymatic metabolisation by TPH and AAAD; format: in vitro ADME; conditions: 7-HTP to 5,7-DHT, 6-HTP to 5,6-DHT
Description: The invention is put into practice according to the claims. […] These two enzymes, TPH and AAAD, are expressed extraordinarily strong in serotonin-producing tumor cells. Due to the unequally higher TPH-expression in these tumor cells in comparison with normal serotonin-producing tissues, only marginally toxic effects occur in these tissues.
FIG. 1. Reaction scheme of enzymatic metabolisation of 7-hydroxytryptophan (7-HTP) to 5,7-dihydroxytryptamine (5,7-DHT). The rate-limiting first step is mediated by the enzyme tryptophan-hydroxylase (TPH) and is followed by a rapid decarboxylation by the aromatic-amino acid-decarboxylase (AAAD).

N[C@@H](Cc1ccc(Cl)cc1)C(=O)O [PCPA, p-chlorophenylalanin, reference compound]
protection of 7-HTP-sensitive NG108-cells against 7-HTP toxicity ([1]; NG108 cells treated with 7-HTP plus TPH-inhibitor, no 5,7-DHT synthesised intracellularly): can be protected

N[C@@H](Cc1c[nH]c2c(O)cccc12)C(=O)O [7-HTP, 7-hydroxytryptophan]
toxicity on the serotonin-producing cells NG108 ([1]; NG108 cells, FIG. 2): Specific toxicity
growth of COS7-cells (COS7-cells): not affected
toxicity on the serotonin-producing mastocytoma cells P815 [2]: rapidly and specifically killed
toxicity on the serotonin-producing human carcinoid cells BON [3]: rapidly and specifically killed
intracellular metabolisation to dihydroxytryptamine toxin [4]: metabolised intracellularly

N[C@@H](Cc1c[nH]c2cc(O)ccc12)C(=O)O [6-HTP, 6-hydroxytryptophan]
intracellular metabolisation to dihydroxytryptamine toxin [4]: metabolised intracellularly
